Laboratory results taken from PubChem BioAssay AID2060512 (Molecular Pharmacology Branch, DTP, NCI, 2025).

Test system: 186277-243-T-J2-PDC complex spheroid viability
Assay: Anticancer human tumor 186277-243-T-J2-PDC patient-derived colon adenocarcinoma cell line growth inhibition [GQUAD]
Settings: for IC50: curve of first compound; for viability, T/C: stronger effect = lower value; active = viability on the fitted dose curve at most 10% of control; inactive = the rest
Description: DNA G-quadruplex Stabilizer Agents in Combinations in Complex Spheroids
A high-throughput screen of multi-cell type tumor spheroids was designed to identify active combinations of DNA G-quadruplex stabilizer agents and targeted small molecules. Complex spheroids include a stromal component modeled by human endothelial cells (HUVEC) and fibroblasts modeled by human mesenchymal stem cells (MSCs). The concentration ranges selected for each drug and investigational agent were based upon clinically achievable concentrations if the clinical Cmax of the agent was known.
Compounds. The drugs and investigational agents: pidnarulex (CX-5461; NSC782164), APTO-253 (NSC789042), BRACO-19 (NSC847499), peposertib (NSC802822), ceralasertib (NSC780249), elimusertib (NSC800525), camonsertib (NSC841442), AZD-1390 (NSC803789), olaparib (NSC753686), talazoparib (NSC767125), ART-558 (NSC835418), sotorasib (NSC818433), MRTX-1133 (NSC836407), SN-38 (NSC673596), topotecan (NSC609699), etoposide (NSC141540), doxorubicin (NSC123127), gemcitabine (NSC613327), 5-fluorouracil (NSC19893), paclitaxel (NSC125973), vemurafenib (NSC761431), panobinostat (NSC761190), R-306465 (JNJ-16241199; NSC773264), adavosertib (NSC754352), TP-3654 (NSC805149), carboplatin (NSC241240), KSQ-4279 (NSC840948), and staurosporine (NSC755774) were obtained from the National Cancer Institute (NCI) Developmental Therapeutics Program Chemical Repository (34). The FDA-approved anticancer drug set is available from the NCI Developmental Therapeutics Program. […] The stock solutions were prepared in dimethyl sulfoxide (DMSO, Sigma-Aldrich, St. Louis, MO, cat. D2650) at 800-fold the tested concentration and stored at -70 degrees C prior to their use. All drugs and investigational agents were tested over a range starting from a high concentration at or near the clinical Cmax and decreasing in half-log increments. If the clinical Cmax for an agent had not been determined, the highest concentration tested was 10 microM.
2.3 Cell Culture. All cells were maintained in an incubator at 37 degrees C and 5% CO2 with 95% humidity. The PDC lines were cultured according to standard operating procedures established by the NCI PDMR. All PDCs were thawed and cultured in Matrigel-coated flasks prepared with a working solution of 1X Ham's F-12 nutrient mix, without supplementation (Invitrogen, cat. 11765054), 100 U/mL penicillin-streptomycin (Invitrogen, cat. 15140122), and 2.5% Matrigel (Corning Inc., cat. 354248) for the first three passages. The 857933-349-R-J2-PDC line was cultured in 6C/Colon 1B media, which includes advanced DMEM/F-12 (Thermo Fisher Scientific, cat. 12634028), 10 mM HEPES (Thermo Fisher Scientific, cat. 15630080), 1X GlutaMAX supplement (Thermo Fisher Scientific, cat. 35050061), 0.1 mg/mL primocin (InvivoGen, cat. ant-pm-2), 10% defined fetal bovine serum, heat inactivated (HyClone Laboratories Inc., cat. SH30070.03HI), 50% L-WRN conditioned media (ATCC, cat. CRL-3276), 1.25 mM N-Acetyl-L-cysteine (Sigma-Aldrich, cat. A9165), 10 mM nicotinamide (Sigma-Aldrich, cat. N0636), 1X B-27 supplement (Thermo Fisher Scientific, cat. 17504044), 1X N-2 supplement (Thermo Fisher Scientific, cat. 17502048), 10 microM Y-27632 dihydrochloride (Tocris Bioscience, cat. 1254), and 50 ng/mL human EGF recombinant protein (Thermo Fisher Scientific, cat. PHG0311). The 485176-168-R4-J1-PDC line was cultured in Panc media, which includes all 6C/Colon 1B media components plus 100 ng/mL human FGF-10 (Thermo Fisher Scientific, cat. 100-26), 500 nM SB-431542 (Selleckchem, cat. S1067), and gastrin (Tocris, cat. 3006).
[…]
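Note: spheroids exposed to drugs for 7 days.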

O=C(NO)c1cnc(N2CCN(S(=O)(=O)c3ccc4ccccc4c3)CC2)nc1 + Cc1cnc(CNC(=O)c2c(=O)c3ccc(N4CCCN(C)CC4)nc3n3c2sc2ccccc23)cn1
active: viability, T/C (second compound 0.0316 µM, first compound 0.316 µM) 9.06% | viability, T/C (second compound 0.0316 µM, first compound 1 µM) 0.26% | viability, T/C (second compound 0.0316 µM, first compound 3.16 µM) 0.12% | viability, T/C (second compound 0.0316 µM, first compound 10 µM) 0.12% | viability, T/C (second compound 0.1 µM, first compound 0.316 µM) 9.09% | viability, T/C (second compound 0.1 µM, first compound 1 µM) 0.28% | viability, T/C (second compound 0.1 µM, first compound 3.16 µM) 0.09% | viability, T/C (second compound 0.1 µM, first compound 10 µM) 0.1% | viability, T/C (second compound 0.316 µM, first compound 0.316 µM) 8.31% | viability, T/C (second compound 0.316 µM, first compound 1 µM) 0.44% | viability, T/C (second compound 0.316 µM, first compound 3.16 µM) 0.08% | viability, T/C (second compound 0.316 µM, first compound 10 µM) 0.1% | viability, T/C (second compound 1 µM, first compound 1 µM) 0.11% | viability, T/C (second compound 1 µM, first compound 3.16 µM) 0.08% | viability, T/C (second compound 1 µM, first compound 10 µM) 0.1% | viability, T/C (second compound 3.16 µM, first compound 0.316 µM) 0.15% | viability, T/C (second compound 3.16 µM, first compound 1 µM) 0.1% | viability, T/C (second compound 3.16 µM, first compound 3.16 µM) 0.1% | viability, T/C (second compound 3.16 µM, first compound 10 µM) 0.12% | viability, T/C (second compound 10 µM, first compound 0.316 µM) 0.24% | viability, T/C (second compound 10 µM, first compound 1 µM) 0.14% | viability, T/C (second compound 10 µM, first compound 3.16 µM) 0.16% | viability, T/C (second compound 10 µM, first compound 10 µM) 0.18%
< 31.6 nM: IC50 (second compound 1 µM) | IC50 (second compound 3.16 µM) | IC50 (second compound 10 µM)
inactive: viability, T/C (second compound 0.0316 µM, first compound 0.0316 µM) 96.1% | viability, T/C (second compound 0.0316 µM, first compound 0.1 µM) 71.1% | viability, T/C (second compound 0.1 µM, first compound 0.0316 µM) 66.5% | viability, T/C (second compound 0.1 µM, first compound 0.1 µM) 50.9% | viability, T/C (second compound 0.316 µM, first compound 0.0316 µM) 64.5% | viability, T/C (second compound 0.316 µM, first compound 0.1 µM) 39.7% | viability, T/C (second compound 1 µM, first compound 0.0316 µM) 40.2% | viability, T/C (second compound 1 µM, first compound 0.1 µM) 34.2% | viability, T/C (second compound 1 µM, first compound 0.316 µM) 8.56% | viability, T/C (second compound 3.16 µM, first compound 0.0316 µM) 33.3% | viability, T/C (second compound 3.16 µM, first compound 0.1 µM) 24.1% | viability, T/C (second compound 10 µM, first compound 0.0316 µM) 34.2% | viability, T/C (second compound 10 µM, first compound 0.1 µM) 19.8%
148 nM: IC50 (second compound 0.0316 µM)
102 nM: IC50 (second compound 0.1 µM)
61.9 nM: IC50 (second compound 0.316 µM)
